Laboratory results reported in paper PMC8466554, “Heteroaryl-Ethylenes as New Lead Compounds in the Fight against High Priority Bacterial Strains” (Antibiotics, 2021).
Values joined by “and” are separate entries in the source; they are usually repeats but may differ in a detail not shown here. Equal entries are not always repeated. Where two headings read alike, the source gives them in different places.

Assays:
[1] = test system: S.aureus Mu50-VISA; test: MIC and MBC microtiter plate assay; assay type: cell-based, Staphylococcus aureus
[2] = test system: S.aureus USA300-CAMRSA; test: MIC and MBC microtiter plate assay; assay type: cell-based, Staphylococcus aureus
[3] = test system: S.aureus ATCC29213-MSSA; test: MIC and MBC microtiter plate assay; assay type: cell-based, Staphylococcus aureus
[4] = test system: S.aureus ATCC12598-MSSA; test: MIC and MBC microtiter plate assay, also with different inocula; assay type: cell-based, Staphylococcus aureus
[5] = test system: E. faecalis ATCC51299-VRE; test: as above; assay type: cell-based
[6] = test system: E. faecalis ATCC29212-VSE; test: MIC and MBC microtiter plate assay; assay type: cell-based
[7] = test system: A. baumannii ATCC17978; test: MIC and MBC microtiter plate assay, also with different inocula; assay type: cell-based, Acinetobacter baumannii; settings: A. baumannii ATCC17978
[8] = test system: E. coli ATCC25922; test: as above; assay type: cell-based, Escherichia coli
[9] = test system: P. aeruginosa ATCC27853; test: MIC microtiter plate assay; assay type: cell-based, Pseudomonas aeruginosa
[10] = test system: K. pneumoniae ATCC700603; test: MIC microtiter plate assay; assay type: cell-based, Klebsiella pneumoniae
[11] = test system: K. pneumoniae ATCC BAA-2814; test: MIC microtiter plate assay; assay type: cell-based, Klebsiella pneumoniae; settings: K. pneumoniae ATCC BAA-2814 (MDR strain)
[12] = test system: Gram-positive control strains; test: MIC and MBC, summary over Gram-positive control strains; assay type: cell-based, S. aureus and Enterococcus spp.; settings: Gram-positive control strains
[13] = test system: Gram-positive and Gram-negative ATCC strains; test: MIC and MBC, summary over Gram-positive and Gram-negative strains; assay type: cell-based; settings: bactericidal effect defined as MBC/MIC ≤ 4
[14] = test system: CaCo-2 cells; test: MTT cytotoxicity assay; assay type: cell-based, human; settings: 24 h of incubation relative to untreated controls
Description: To evaluate the biological activity of the PBn series, compounds were screened for toxicity against the colon-rectal cancer cell line CaCo-2 (ATCC HTB-37). These human cancer cells were treated with solutions of the compounds at decreasing concentrations, starting from 100 μM up to 0.01 μM. The reference compound used for these assays was 5-Fluorouracil (5-Fu), a pyrimidine analogue belonging to the family of antimetabolite. […] Briefly, human colorectal adenocarcinoma cells (CaCo-2 HTB-37^TM Colorectal Adenocarcinoma Human, American Type Culture Collection, Manassas, VA, USA) were grown in Dulbecco’s MEM (DMEM) with 10% heat-inactivated fetal bovine serum, 2 mM L-Alanyl-L-Glutamine, penicillin-streptomycin (50 units-50 μg for mL) and incubated at 37 °C in a humidified atmosphere of 5% CO2, 95% air. CaCo-2 cells were plated in 96 well pates and incubated at 37 °C. The PBn series compounds and 5-FU were prepared as a 1 mM solution in 10 mL with 0.01% DMSO. Then, 24 h after plating, cells were treated with 20 μL of each solution. Untreated cells were used as controls. […] The results were read on a multiwell scanning spectrophotometer (AF2200 plate reader, Eppendorf, Milan, Italy), using a wavelength of 569 nm.

[15] = S.aureus ATCC12598-MSSA, value in brackets
[16] = E. faecalis ATCC51299-VRE, value in brackets

MIC [1]: 2 µg/mL | MIC ([1]; value in brackets): 3.46 µM | MIC [2]: 2 µg/mL | MIC ([2]; value in brackets): 3.46 µM | MIC [3]: 2 µg/mL | MIC ([3]; value in brackets): 3.46 µM | MIC ([4]; S. aureus ATCC12598, inoculum 1.00101 (1 × 10^1 CFU/mL)): 0.5 mg/L and 0.86 μM | MIC ([4]; S. aureus ATCC12598, inoculum 1.00102 (1 × 10^2 CFU/mL)): 2 mg/L and 3.46 μM | MIC ([4]; S. aureus ATCC12598, inoculum 1.00103 (1 × 10^3 CFU/mL)): 3.46 μM and 2 mg/L | MIC ([4]; S. aureus ATCC12598, inoculum 1.00104 (1 × 10^4 CFU/mL)): 2 mg/L and 3.46 μM | MIC ([4]; S. aureus ATCC12598, inoculum 1.00105 (1 × 10^5 CFU/mL, standard)): 2 mg/L and 3.46 μM | MIC ([4]; S. aureus ATCC12598, inoculum 1.00106 (1 × 10^6 CFU/mL)): 2 mg/L and 3.46 μM | MIC ([4]; S. aureus ATCC12598, inoculum 1.00107 (1 × 10^7 CFU/mL)): 4 mg/L and 6.91 μM | MIC ([4]; S.aureus ATCC12598-MSSA): 2 mg/L | MIC [4, 15]: 3.46 µM | MIC ([5]; E. faecalis ATCC51299-VRE): 4 mg/L | MIC [5, 16]: 6.91 µM | MIC ([5]; E. faecalis ATCC51299, inoculum 1.00101 (1 × 10^1 CFU/mL)): 0.5 mg/L and 0.86 μM | MIC ([5]; E. faecalis ATCC51299, inoculum 1.00102 (1 × 10^2 CFU/mL)): 4 mg/L and 6.91 μM | MIC ([5]; E. faecalis ATCC51299, inoculum 1.00103 (1 × 10^3 CFU/mL)): 4 mg/L and 6.91 μM | MIC ([5]; E. faecalis ATCC51299, inoculum 1.00104 (1 × 10^4 CFU/mL)): 4 mg/L and 6.91 μM | MIC ([5]; E. faecalis ATCC51299, inoculum 1.00105 (1 × 10^5 CFU/mL, standard)): 4 mg/L and 6.91 μM | MIC ([5]; E. faecalis ATCC51299, inoculum 1.00106 (1 × 10^6 CFU/mL)): 8 mg/L and 13.83 μM | MIC ([5]; E. faecalis ATCC51299, inoculum 1.00107 (1 × 10^7 CFU/mL)): 32 mg/L and 55.30 μM | MIC [6]: 4 µg/mL | MIC ([6]; value in brackets): 6.91 µM | MIC [7]: 128 µg/mL | MIC ([7]; value in brackets): 221.22 µM | MIC [8]: 128 µg/mL | MIC ([8]; value in brackets): 221.22 µM | MIC [9]: > 128 µg/mL | MIC ([9]; value in brackets): > 221.22 µM | MIC [10]: > 128 µg/mL | MIC ([10]; value in brackets): > 221.22 µM | MIC [11]: > 128 µg/mL | MIC ([11]; value in brackets): > 221.22 µM | comparison between MIC and MBC values [12]: no significant differences
SMILES: CCCCN(CCCC)c1ccc(-c2ccc(C=C3CCCc4c[n+](CC)ccc43)s2)s1.[I-] [PB8]
MBC [1]: 8 µg/mL | MBC ([1]; value in brackets): 13.83 µM | MBC [2]: 4 µg/mL | MBC ([2]; value in brackets): 6.91 µM | MBC [3]: 8 µg/mL | MBC ([3]; value in brackets): 13.83 µM | MBC ([4]; S.aureus ATCC12598-MSSA): 4 µg/mL | MBC [4, 15]: 6.91 µM | MBC ([5]; E. faecalis ATCC51299-VRE): 4 µg/mL | MBC [5, 16]: 6.91 µM | MBC [6]: 4 µg/mL | MBC ([6]; value in brackets): 6.91 µM | MBC/MIC [13]: ≤ 4 | IC50 [14]: 5.01 µM and 5 µM
